Measurements taken from PMC10449418, “Adapting antibacterial display to identify serum-active macrocyclic peptide antibiotics” (PNAS Nexus, 2023).
No end group written: not given here.

Experiments:
E. coli 25922 [1] = assay: MBC in 100% human serum (HS); type: cell-based, Escherichia coli
Text: Minimum inhibitory concentration (MIC) and minimum bactericidal concentration (MBC) assays are standard methods used to first examine antimicrobial potential. These assays are often performed against lab strains of bacteria grown in Mueller–Hinton (MH) media which is not representative of conditions found in the human body during infection. […] W3110 is a K12-derived strain and cannot grow in HS and lacks O-antigen on its cell surface in contrast to 25922. MBCs were used instead of MICs because HS was opaque, making bacterial growth difficult to observe by sight. We chose three cationic AMPs previously discovered using SLAY and four natural cationic AMPs, each with α-helical or β-hairpin secondary structure ([18–24]) (Table S1).

E. coli 25922 [2] = assay: NPN outer membrane disruption assay; type: cell-based, Escherichia coli; settings: 30 min of treatment, PBS, various concentrations, n = 3
Text: (§1) First, we performed two fluorescent membrane disruption assays using 1-N-phenylnaphthylamine (NPN) and propidium iodide (PI). Normally the outer membrane excludes hydrophobic molecules such as NPN, but when damaged, NPN can bind hydrophobic fatty acids within the membrane and fluoresce. PI fluoresces upon DNA binding but can only gain access to the cytoplasm if both the outer and inner membranes have been permeabilized. Antibiotics tested retained antimicrobial activity under the assay conditions used (Fig. S3A).
A culture of E. coli 25922 was grown overnight in liquid media at 37°C. The following day, it was back diluted 1:25 in LB media and grown at 37°C until an OD600 of 0.5. The culture was then pelleted at 1,000 g, washed once with PBS, and resuspended to a final concentration of OD600 0.5. […] Each sample was loaded in triplicate into a 96-well optical-bottom plate and serially diluted two-fold with final volumes of 50 µl in each well. Fifty microliters of the 40 µM NPN was then added to each well, followed by 100 µl of the bacterial cell suspension. After 30 min, the plate was transferred to a BioTek Synergy LX multimode reader for fluorescent measurements. Triplicate samples were normalized to nontreated wells and presented as a mean ± 1 SD (n = 3).

E. coli 25922 [3] = assay: PI uptake (outer and inner membrane permeabilization) assay; type: cell-based, Escherichia coli; settings: 30 min of treatment, PBS + 50 mM glucose, 37°C, n = 3
Text: as §1
PI uptake was measured for E. coli 25922 as previously described ([20]). Briefly, single colonies from overnight growth on LB were inoculated into MH broth and grown to mid-log phase. Cells were then washed twice with PBS + 50 mM glucose and resuspended to an OD = 0.1 in PBS + 50 mM glucose. PI was added at a concentration of 10 µg/ml, and 50 µl of the PI cell mixture was quickly added to a preprepared 96-well plate (NUNC black-walled clear bottom plate) that contained 50 µl of various peptide concentrations. The plate was then allowed to incubate for 30 min in the dark at 37°C and was then read using the Biotek Synergy LX plate reader with the fluorescence red filter cube. Triplicate samples were normalized to nontreated wells and presented as a mean ± 1 SD (n = 3).

G. mellonella larvae = assay: LD50 in G. mellonella larvae; type: in vivo, Galleria mellonella; settings: single injection of a 100-mg/kg dose, death after 4 days, n = 10
Method: Live G. mellonella larvae were purchased from DBDPet. Larvae appearing fully healthy (no apparent melanization) and weighing between 200 and 300 mg were used for survival assays. Larvae were first injected into their second left proleg with 10 µl of PBS or PBS containing 1 × 10^6E. coli 25922 cells grown to an OD of 0.5 and washed in PBS. Injections were performed using a Hamilton 250-µl pipet equipped with an autodispenser and 30-gauge BD needle. […] Larvae groups were then incubated at 37°C for 72 h and observed for death. Larvae were determined to be dead if they were unable to right themselves after being placed on their back. Significance was determined by comparing Kaplan–Meier survival curves to untreated using a log-rank test (n ≥ 13 per sample).

E. coli 25922 [4] = assay: MIC (growth inhibition) in MH media; type: cell-based, Escherichia coli; settings: 37°C, 18–24 h, examined by eye, median of three replicates

Row | Molecule | serum activity (MBC in HS), in words (E. coli 25922 [1]) | NPN fluorescence (outer membrane permeation) (E. coli 25922 [2]) | PI uptake (outer and inner membrane permeabilization) (E. coli 25922 [3]) | LD50 for G. mellonella larvae (G. mellonella larvae) | Antibiotic activity against E. coli 25922: MIC (E. coli 25922 [4])
1 | CC(C)C[C@H](NC(=O)[C@H](CCCNC(=N)N)NC(=O)CNC(=O)CNC(=O)[C@@H](N)CCCNC(=N)N)C(=O)N[C@H]1CSSC[C@@H](C(=O)N[C@H](C(=O)NCC(=O)N[C@@H](CCCNC(=N)N)C(N)=O)C(C)C)NC(=O)[C@H](C(C)C)NC(=O)[C@@H]2CSSC[C@H](NC(=O)[C@H](Cc3ccc(O)cc3)NC1=O)C(=O)N[C@@H](CCCNC(=N)N)C(=O)N[C@@H](CCCNC(=N)N)C(=O)N[C@@H](CCCNC(=N)N)C(=O)N[C@@H](Cc1ccccc1)C(=O)N2 [Protegrin-1] | retained the most activity in HS relative to MH | strong fluorescence of both NPN and PI | strong fluorescence of both NPN and PI | over 100 mg/kg | –
2 | KWCFRVCYRGICYRRCR-NH2 (disulfide (positions not given here)) [Tachyplesin-1, natural β-AMP] | retained the most activity in HS relative to MH | – | – | – | –
3 | Kanamycin | – | no NPN fluorescence or PI uptake | no NPN fluorescence or PI uptake | – | 4 µg/mL
